For 24 molecules, IC50 results are on record in US9573956B2, “Compounds as dual inhibitors of phosphodiesterases and histone deacetylases” (FUNDACIÓN PARA LA INVESTIGACIÓN MÉDICA APLICADA, priority 2013, dated 2017).

The IC50 is the concentration that inhibits the measured activity by half.

Read-outs that look alike come from different tables or passages of the source.

What all share (format): biochemical
The target in test [1] is T1, HDAC6 (Homo sapiens, UniProt Q9UBN7).
T1 construct: BC069243; Cat. #50006) is full-length with N-terminal GST tag; GST (N); purchased BPS Biosciences 50006; host or cells: baculovirus infected Sf9 cells
T1 sequence (Q9UBN7 1-1215): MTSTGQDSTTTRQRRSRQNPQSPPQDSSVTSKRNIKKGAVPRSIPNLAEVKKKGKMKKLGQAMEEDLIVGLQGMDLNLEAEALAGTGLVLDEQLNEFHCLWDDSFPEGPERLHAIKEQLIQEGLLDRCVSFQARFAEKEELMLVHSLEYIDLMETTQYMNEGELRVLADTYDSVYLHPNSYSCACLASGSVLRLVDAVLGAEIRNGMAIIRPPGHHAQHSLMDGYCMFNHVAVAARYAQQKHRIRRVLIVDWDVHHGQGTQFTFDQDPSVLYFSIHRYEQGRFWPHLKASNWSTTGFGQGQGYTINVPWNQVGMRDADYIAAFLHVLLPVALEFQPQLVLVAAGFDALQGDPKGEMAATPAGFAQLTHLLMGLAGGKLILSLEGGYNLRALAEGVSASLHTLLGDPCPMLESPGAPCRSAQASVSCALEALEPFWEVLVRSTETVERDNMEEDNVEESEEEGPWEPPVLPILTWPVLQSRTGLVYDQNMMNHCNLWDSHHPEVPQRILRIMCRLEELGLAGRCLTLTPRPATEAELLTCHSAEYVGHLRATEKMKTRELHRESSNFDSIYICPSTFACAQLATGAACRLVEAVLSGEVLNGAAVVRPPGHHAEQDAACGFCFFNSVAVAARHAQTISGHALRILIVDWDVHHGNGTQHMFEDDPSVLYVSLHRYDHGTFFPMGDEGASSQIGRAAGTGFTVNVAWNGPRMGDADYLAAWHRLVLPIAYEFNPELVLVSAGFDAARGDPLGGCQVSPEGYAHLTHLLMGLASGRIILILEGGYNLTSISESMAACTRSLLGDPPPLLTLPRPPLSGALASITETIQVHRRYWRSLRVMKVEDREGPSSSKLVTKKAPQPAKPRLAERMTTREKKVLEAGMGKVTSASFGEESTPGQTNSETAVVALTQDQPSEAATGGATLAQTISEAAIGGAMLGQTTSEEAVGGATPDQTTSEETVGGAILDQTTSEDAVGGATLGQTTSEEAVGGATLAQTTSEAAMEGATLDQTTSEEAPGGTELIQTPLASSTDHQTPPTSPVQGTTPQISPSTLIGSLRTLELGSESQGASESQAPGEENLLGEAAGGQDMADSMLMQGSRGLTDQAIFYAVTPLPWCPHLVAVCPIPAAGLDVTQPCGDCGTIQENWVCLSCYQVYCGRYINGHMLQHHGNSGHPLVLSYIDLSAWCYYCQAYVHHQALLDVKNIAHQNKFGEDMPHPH
Nature of the test: HDAC enzyme activity assay (fluorogenic substrate), HDAC6.

In test [2] the target is T2, PDE5A (Homo sapiens, UniProt O76074).
T2 construct: they are full-length with N-terminal GST tag; GST (N); purchased BPS Biosciences 60050; host or cells: baculovirus infected Sf9 cells
Briefly: PDE enzyme activity assay (HTRF cGMP), PDE5A. To be noted: recombinant enzyme; read-out: PDE5A1 inhibition (IC50). In general terms: TR-FRET usually uses a lanthanide donor and a delayed reading to cut background.

Test [3] concerns the target T3, HDAC2 (Homo sapiens, UniProt Q92769).
T3 construct: NM_001527; Cat. #50002) is full-length with C-terminal his tag; His (C); purchased BPS Biosciences 50002; host or cells: baculovirus infected Sf9 cells
Nature of the test: HDAC enzyme activity assay (fluorogenic substrate), HDAC2.

In test [4] the target is HDAC1 (Homo sapiens, UniProt Q13547). Nature of the test: HDAC enzyme activity assay (fluorogenic substrate), HDAC1.
The mark [5] stands for this setting: recombinant enzyme, read-out: HDAC6 inhibition (IC50).
The mark [6] stands for this setting: recombinant enzyme, read-out: HDAC2 inhibition (IC50).
[7] abbreviates: recombinant enzyme, read-out: HDAC1 inhibition (IC50).

Sequence of HDAC1 (Q13547 whole entry): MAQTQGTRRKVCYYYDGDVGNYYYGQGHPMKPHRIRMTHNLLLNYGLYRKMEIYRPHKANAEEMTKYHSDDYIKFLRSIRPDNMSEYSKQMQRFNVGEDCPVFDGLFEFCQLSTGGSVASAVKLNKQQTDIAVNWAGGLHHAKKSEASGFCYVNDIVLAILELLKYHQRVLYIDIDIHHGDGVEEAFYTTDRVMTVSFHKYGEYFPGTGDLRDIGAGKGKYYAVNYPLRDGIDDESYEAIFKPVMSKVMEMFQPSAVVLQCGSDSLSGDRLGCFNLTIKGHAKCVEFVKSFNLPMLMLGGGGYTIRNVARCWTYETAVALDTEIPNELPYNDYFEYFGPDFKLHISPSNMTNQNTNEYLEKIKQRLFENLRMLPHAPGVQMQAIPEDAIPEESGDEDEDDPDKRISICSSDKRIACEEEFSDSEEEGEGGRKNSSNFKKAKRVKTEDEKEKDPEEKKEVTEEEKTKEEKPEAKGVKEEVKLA
T3 sequence (Q92769 whole entry): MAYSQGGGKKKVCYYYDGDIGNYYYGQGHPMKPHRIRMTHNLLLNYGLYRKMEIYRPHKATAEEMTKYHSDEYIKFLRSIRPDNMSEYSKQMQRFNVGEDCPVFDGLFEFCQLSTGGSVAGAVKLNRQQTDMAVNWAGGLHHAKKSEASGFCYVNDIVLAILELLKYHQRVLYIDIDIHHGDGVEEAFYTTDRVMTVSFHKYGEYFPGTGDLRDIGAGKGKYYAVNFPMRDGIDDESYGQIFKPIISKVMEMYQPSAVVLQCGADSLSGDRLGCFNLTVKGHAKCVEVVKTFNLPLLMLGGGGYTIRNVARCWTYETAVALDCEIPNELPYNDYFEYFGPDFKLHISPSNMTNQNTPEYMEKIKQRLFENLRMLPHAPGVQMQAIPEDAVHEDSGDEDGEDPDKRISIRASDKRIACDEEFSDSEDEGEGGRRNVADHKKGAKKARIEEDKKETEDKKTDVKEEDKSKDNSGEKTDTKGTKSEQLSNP

`CCCc1nn(C)c2c(=O)[nH]c(-c3cc(C4CCC(C(=O)NO)CC4)ccc3OCC)nc12` (racemic) [Example 1-75, 4-[4-ethoxy-3-(1-methyl-7-oxo-3-propyl-6H-pyrazolo[4,3-d]pyrimidin-5-yl)phenyl]cyclohexanecarbohydroxamic acid]: the IC50 in test [1] (setting [5]) was 1000 to 10000 nM; in test [2] it was 10 to 1000 nM.
Consider `CCCc1nn(C)c2c(=O)[nH]c(-c3cc(CC4CCC(C(=O)NO)CC4)ccc3OCC)nc12` (racemic) [Example 1-76, 4-[[4-ethoxy-3-(1-methyl-7-oxo-3-propyl-6H-pyrazolo[4,3-d]pyrimidin-5-yl)phenyl]methyl]cyclohexanecarbohydroxamic acid], for which the IC50 in test [1] (setting [5]) and in test [2] was 10 to 1000 nM in each case.
For `CCCc1nn(C)c2c(=O)[nH]c(-c3cc(CC4CCC(C(=O)NO)C4)ccc3OCC)nc12` (racemic) [Example 1-80, 3-[[4-ethoxy-3-(1-methyl-7-oxo-3-propyl-6H-pyrazolo[4,3-d]pyrimidin-5-yl)phenyl]methyl]cyclopentanecarbohydroxamic acid], the IC50 in test [1] (setting [5]) and in test [2] was 10 to 1000 nM throughout.
With `CCCc1nn(C)c2c(=O)[nH]c(-c3cc(C4CC(C(=O)NO)C4)ccc3OCC)nc12` (racemic) [Example 1-82, 3-[4-ethoxy-3-(1-methyl-7-oxo-3-propyl-6H-pyrazolo[4,3-d]pyrimidin-5-yl)phenyl]cyclobutanecarbohydroxamic acid], the IC50 in test [1] (setting [5]) and in test [2] was 10 to 1000 nM throughout.
Turning to `CCCc1nc(C)c2c(=O)[nH]c(-c3cc(C4CCC(C(=O)NO)CC4)ccc3OCC)nn12` (racemic) [Example 2-12, 4-[4-ethoxy-3-(5-methyl-4-oxo-7-propyl-3H-imidazo[5,1-f][1,2,4]triazin-2-yl)phenyl]cyclohexanecarbohydroxamic acid], the IC50 in test [1] (setting [5]) is 1000 to 10000 nM; in test [2], less than 10 nM.
Turning to `CCCc1nc(C)c2c(=O)[nH]c(-c3cc(S(=O)(=O)N(C)CC(=O)N(C)OC)ccc3OCC)nn12` [Comparative Example 2-01, 2-[[4-ethoxy-3-(5-methyl-4-oxo-7-propyl-3H-imidazo[5,1-f][1,2,4]triazin-2-yl)phenyl]sulfonyl-methyl-amino]-N-methoxy-N-methyl-acetamide, reference compound], the IC50 is greater than 20000 nM in test [1] (comparative examples, inactive, read-out: HDAC6 IC50); greater than 20 µM in test [3] (comparative examples, inactive, read-out: HDAC2 IC50); greater than 20000 nM in test [4] (comparative examples, inactive, read-out: HDAC1 IC50).
Regarding `CCCc1nn(C)c2c(=O)[nH]c(-c3cc(S(=O)(=O)N4CCC(CCC(=O)NO)CC4)ccc3OCC)nc12` [Example 1-01], the IC50 is greater than 10 µM in test [3] (setting [6]), greater than 10000 nM in test [4] (setting [7]) and 10 to 1000 nM in test [2].
As for `CCCc1nn(C)c2c(=O)[nH]c(-c3cc(S(=O)(=O)N4CCN(Cc5ccc(/C=C/C(=O)NO)cc5)CC4)ccc3OCC)nc12` [Example 1-02], the half-maximal inhibitory concentration (IC50) is 1 to 10 µM in test [3] (setting [6]), 10 to 1000 nM in test [4] (setting [7]) and less than 10 nM in test [2].
Regarding `CCCc1nn(C)c2c(=O)[nH]c(-c3cc(S(=O)(=O)N4CCN(CCC(=O)NO)CC4)ccc3OCC)nc12` [Example 1-04, 3-(4-[3-(6,7-Dihydro-1-methyl-7-oxo-3-propyl-1H-pyrazolo[4,3-d]pyrimidin-5-yl)-4-ethoxyphenylsulfonyl]piperazin-1-yl)-N-hydroxypropanamide], the IC50 in test [3] (setting [6]) is greater than 10 µM; in test [4] (setting [7]), 1000 to 10000 nM; in test [2], less than 10 nM.
For `CCCc1nn(C)c2c(=O)[nH]c(-c3cc(S(=O)(=O)N4CCN(CCCC(=O)NO)CC4)ccc3OCC)nc12` [Example 1-05], the IC50 in test [3] (setting [6]) is 1 to 10 µM; in test [4] (setting [7]), 1000 to 10000 nM; in test [2] it was less than 10 nM.
Regarding `CCCc1nn(C)c2c(=O)[nH]c(-c3cccc(OC4CCN(c5ncc(C(=O)NO)cn5)CC4)c3)nc12` [Example 1-14], the IC50 in test [1] (setting [5]) lay within 10 to 1000 nM; in test [4] (setting [7]) it was 10 to 1000 nM; in test [2] it was 1000 to 10000 nM.
For `CCCc1nn(C)c2c(=O)[nH]c(-c3cc(CC4CCN(CC(=O)NO)CC4)ccc3OCC)nc12` [Example 1-32], the IC50 in test [1] (setting [5]) is 1000 to 10000 nM; in test [3] (setting [6]) it was greater than 10 µM; in test [2], less than 10 nM.
As to `CCCc1nn(C)c2c(=O)[nH]c(-c3cc(NC4CCN(c5ccc(C(=O)NO)cc5)CC4)ccc3OCC)nc12` [Example 1-47], the IC50 in test [1] (setting [5]) is 1000 to 10000 nM; in test [4] (setting [7]) it was 1000 to 10000 nM; in test [2] it was 10 to 1000 nM.
`CCCc1nn(C)c2c(=O)[nH]c(-c3cc(-c4ccc(C(=O)NO)s4)ccc3OCC)nc12` [Example 1-71]: the IC50 in test [1] (setting [5]) was 10 to 1000 nM; in test [2], less than 10 nM.
With `CCCc1nn(C)c2c(=O)[nH]c(-c3cc(-c4ccc(C(=O)NO)cn4)ccc3OCC)nc12` [Example 1-72], the IC50 in test [1] (setting [5]) is 10 to 1000 nM; in test [2] it was less than 10 nM.
On the same counts, the results for `CCCc1nn(C)c2c(=O)[nH]c(-c3cc(-c4ccc(C(=O)NO)nc4)ccc3OCC)nc12` [Example 1-73] are 10 to 1000 nM and less than 10 nM.
Take `CCCc1nn(C)c2c(=O)[nH]c(-c3cc(-c4ccc(C(=O)NO)o4)ccc3OCC)nc12` [Example 1-74]: the IC50 in test [1] (setting [5]) was 1000 to 10000 nM; in test [2], less than 10 nM.
Consider `CCCc1nn(C)c2c(=O)[nH]c(-c3cc(C(OC)c4ccc(C(=O)NO)cc4)ccc3OCC)nc12` (centres unmarked) [Example 1-77, 4-[[4-ethoxy-3-(1-methyl-7-oxo-3-propyl-6H-pyrazolo[4,3-d]pyrimidin-5-yl)phenyl]-methoxy-methyl]benzenecarbohydroxamic acid], for which the IC50 in test [1] (setting [5]) and in test [2] was 10 to 1000 nM in each case.
Take `CCCc1nn(C)c2c(=O)[nH]c(-c3cc(C(O)c4ccc(C(=O)NO)cc4)ccc3OCC)nc12` (centres unmarked) [Example 1-78, 4-[[4-ethoxy-3-(1-methyl-7-oxo-3-propyl-6H-pyrazolo[4,3-d]pyrimidin-5-yl)phenyl]-hydroxy-methyl]benzenecarbohydroxamic acid]: the IC50 in test [1] (setting [5]) was 10 to 1000 nM; in test [2], less than 10 nM.
In the case of `CCCc1nn(C)c2c(=O)[nH]c(-c3cc(C(=O)c4ccc(C(=O)NO)s4)ccc3OCC)nc12` [Example 1-79, 5-[4-ethoxy-3-(1-methyl-7-oxo-3-propyl-6H-pyrazolo[4,3-d]pyrimidin-5-yl)benzoyl]thiophene-2-carbohydroxamic acid], the IC50 was 10 to 1000 nM in test [1] (setting [5]) and less than 10 nM in test [2].
As for `CCCc1nn(C)c2c(=O)[nH]c(-c3cc(CC4CCC(C(=O)NO)C4)ccc3OCC)nc12` (centres unmarked) [Example 1-83, 3-[[4-ethoxy-3-(1-methyl-7-oxo-3-propyl-6H-pyrazolo[4,3-d]pyrimidin-5-yl)phenyl]methyl]cyclopentanecarbohydroxamic acid], the IC50 in test [1] (setting [5]) and in test [2] was 10 to 1000 nM each time.
With `CCCc1nc(C)c2c(=O)[nH]c(-c3cc(Cc4ccc(C(=O)NO)s4)ccc3OCC)nn12` [Example 2-10], the IC50 in test [1] (setting [5]) is 10 to 1000 nM; in test [2], less than 10 nM.
Turning to `CCCc1nc(C)c2c(=O)[nH]c(-c3cc(-c4ccc(C(=O)NO)cc4)ccc3OCC)nn12` [Example 2-11], the IC50 was 10 to 1000 nM in test [1] (setting [5]) and less than 10 nM in test [2].
In the case of `CCCc1nc(C)c2c(=O)[nH]c(-c3cc(C4CCC(C(=O)NO)CC4)ccc3OCC)nn12` (centres unmarked) [Example 2-13, 4-[4-ethoxy-3-(5-methyl-4-oxo-7-propyl-3H-imidazo[5,1-f][1,2,4]triazin-2-yl)phenyl]cyclohexanecarbohydroxamic acid], the results for the IC50 in test [1] (setting [5]) and in test [2] were 10 to 1000 nM and less than 10 nM, respectively.
